Results reported in ChEMBL document CHEMBL4507280 (2021).

Assays:
[1] = system: Tyrosine-protein kinase ABL1 (Homo sapiens), P00519 [H396P]; conditions: Compound concentration 1000.0 nM
[2] = target: Tyrosine-protein kinase ABL1 (Homo sapiens) (UniProt P00519); conditions: Compound concentration 1000.0 nM
[3] = target: Ankyrin repeat and protein kinase domain-containing protein 1 (Homo sapiens) (UniProt Q8NFD2); conditions: Compound concentration 1000.0 nM
[4] = target: Aurora kinase C (Homo sapiens) (UniProt Q9UQB9); conditions: Compound concentration 1000.0 nM
[5] = target: Bone morphogenetic protein receptor type-2 (Homo sapiens) (UniProt Q13873); conditions: Compound concentration 1000.0 nM
Sequence of Bone morphogenetic protein receptor type-2 (Homo sapiens) (Q13873 whole entry): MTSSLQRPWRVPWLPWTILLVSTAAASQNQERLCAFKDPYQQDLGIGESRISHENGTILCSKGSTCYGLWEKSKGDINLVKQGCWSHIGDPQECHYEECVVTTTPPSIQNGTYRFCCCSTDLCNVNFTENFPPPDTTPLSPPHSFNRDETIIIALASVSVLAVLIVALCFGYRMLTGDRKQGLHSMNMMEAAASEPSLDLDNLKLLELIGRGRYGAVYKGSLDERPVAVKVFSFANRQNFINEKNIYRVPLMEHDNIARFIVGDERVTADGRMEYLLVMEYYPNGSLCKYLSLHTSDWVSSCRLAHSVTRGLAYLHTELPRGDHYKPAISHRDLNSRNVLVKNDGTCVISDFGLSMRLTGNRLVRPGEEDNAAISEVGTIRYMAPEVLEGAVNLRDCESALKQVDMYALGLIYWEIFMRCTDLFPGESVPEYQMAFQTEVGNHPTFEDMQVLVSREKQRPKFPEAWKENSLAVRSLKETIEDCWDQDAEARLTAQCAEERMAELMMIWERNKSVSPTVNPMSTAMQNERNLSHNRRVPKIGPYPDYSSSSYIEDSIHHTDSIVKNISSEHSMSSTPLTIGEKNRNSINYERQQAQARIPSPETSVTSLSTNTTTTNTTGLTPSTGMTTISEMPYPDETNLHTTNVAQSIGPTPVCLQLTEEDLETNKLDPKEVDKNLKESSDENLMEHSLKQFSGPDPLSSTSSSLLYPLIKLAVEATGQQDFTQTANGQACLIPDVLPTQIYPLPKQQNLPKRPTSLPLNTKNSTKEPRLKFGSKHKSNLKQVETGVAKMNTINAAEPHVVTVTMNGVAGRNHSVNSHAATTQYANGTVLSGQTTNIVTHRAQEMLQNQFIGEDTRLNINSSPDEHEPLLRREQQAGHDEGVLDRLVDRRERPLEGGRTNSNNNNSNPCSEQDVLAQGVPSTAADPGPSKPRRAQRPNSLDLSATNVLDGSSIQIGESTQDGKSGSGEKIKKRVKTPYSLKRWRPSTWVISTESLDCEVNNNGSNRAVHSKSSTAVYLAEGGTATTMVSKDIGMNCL

[6] = target: Cyclin-dependent kinase 5 (Homo sapiens) (UniProt Q00535); conditions: Compound concentration 1000.0 nM
Sequence of Cyclin-dependent kinase 5 (Homo sapiens) (Q00535 whole entry, looked up): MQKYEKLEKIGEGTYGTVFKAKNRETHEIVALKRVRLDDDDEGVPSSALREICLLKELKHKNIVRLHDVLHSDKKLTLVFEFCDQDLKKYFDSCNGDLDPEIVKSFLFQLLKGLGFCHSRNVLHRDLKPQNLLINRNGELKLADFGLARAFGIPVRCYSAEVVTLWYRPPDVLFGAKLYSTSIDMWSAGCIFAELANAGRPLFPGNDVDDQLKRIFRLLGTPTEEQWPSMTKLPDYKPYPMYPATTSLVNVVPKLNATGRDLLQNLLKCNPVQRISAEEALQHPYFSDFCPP

[7] = target: Cyclin-dependent kinase-like 2 (Homo sapiens) (UniProt Q92772); conditions: Compound concentration 1000.0 nM
[8] = target: Serine/threonine-protein kinase Chk2 (Homo sapiens) (UniProt O96017); conditions: Compound concentration 1000.0 nM
[9] = target: Dual specificity protein kinase CLK4 (Homo sapiens) (UniProt Q9HAZ1); conditions: Compound concentration 1000.0 nM
[10] = target: Macrophage colony-stimulating factor 1 receptor (Homo sapiens) (UniProt P07333); conditions: Compound concentration 1000.0 nM
[11] = target: Casein kinase I isoform alpha (Homo sapiens) (UniProt P48729); conditions: Compound concentration 1000.0 nM
[12] = target: Death-associated protein kinase 3 (Homo sapiens) (UniProt O43293); conditions: Compound concentration 1000.0 nM
[13] = target: Serine/threonine-protein kinase DCLK1 (Homo sapiens) (UniProt O15075); conditions: Compound concentration 1000.0 nM
[14] = target: Serine/threonine-protein kinase DCLK2 (Homo sapiens) (UniProt Q8N568); conditions: Compound concentration 1000.0 nM
[15] = system: Epidermal growth factor receptor (Homo sapiens), P00533 [UNDEFINED MUTATION]; conditions: Compound concentration 1000.0 nM
[16] = system: Epidermal growth factor receptor (Homo sapiens), P00533 [L858R]; conditions: Compound concentration 1000.0 nM
[17] = target: Mitogen-activated protein kinase 7 (Homo sapiens) (UniProt Q13164); conditions: Compound concentration 1000.0 nM
[18] = target: Focal adhesion kinase 1 (Homo sapiens) (UniProt Q05397); conditions: Compound concentration 1000.0 nM
[19] = target: Receptor-type tyrosine-protein kinase FLT3 (Homo sapiens) (UniProt P36888); conditions: Compound concentration 1000.0 nM
[20] = target: Insulin receptor (Homo sapiens) (UniProt P06213); conditions: Compound concentration 1000.0 nM
[21] = target: Tyrosine-protein kinase JAK1 (Homo sapiens) (UniProt P23458); conditions: Compound concentration 1000.0 nM
[22] = target: Leukocyte tyrosine kinase receptor (Homo sapiens) (UniProt P29376); conditions: Compound concentration 1000.0 nM
[23] = target: Dual specificity mitogen-activated protein kinase kinase 4 (Homo sapiens) (UniProt P45985); conditions: Compound concentration 1000.0 nM
Sequence of Dual specificity mitogen-activated protein kinase kinase 4 (Homo sapiens) (P45985 whole entry): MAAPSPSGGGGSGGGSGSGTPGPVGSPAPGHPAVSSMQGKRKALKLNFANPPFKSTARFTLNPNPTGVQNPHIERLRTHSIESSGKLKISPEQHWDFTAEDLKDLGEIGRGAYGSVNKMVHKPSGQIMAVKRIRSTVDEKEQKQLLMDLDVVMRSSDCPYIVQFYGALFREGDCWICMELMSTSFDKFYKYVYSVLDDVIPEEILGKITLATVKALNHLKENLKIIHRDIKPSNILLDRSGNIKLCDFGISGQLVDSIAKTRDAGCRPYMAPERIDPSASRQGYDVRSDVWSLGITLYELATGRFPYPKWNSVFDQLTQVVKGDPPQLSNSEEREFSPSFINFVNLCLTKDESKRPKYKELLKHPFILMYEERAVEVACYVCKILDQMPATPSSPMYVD

[24] = target: Myosin light chain kinase (Homo sapiens) (UniProt Q32MK0); conditions: Compound concentration 1000.0 nM
Sequence of Myosin light chain kinase (Homo sapiens) (Q32MK0 whole entry): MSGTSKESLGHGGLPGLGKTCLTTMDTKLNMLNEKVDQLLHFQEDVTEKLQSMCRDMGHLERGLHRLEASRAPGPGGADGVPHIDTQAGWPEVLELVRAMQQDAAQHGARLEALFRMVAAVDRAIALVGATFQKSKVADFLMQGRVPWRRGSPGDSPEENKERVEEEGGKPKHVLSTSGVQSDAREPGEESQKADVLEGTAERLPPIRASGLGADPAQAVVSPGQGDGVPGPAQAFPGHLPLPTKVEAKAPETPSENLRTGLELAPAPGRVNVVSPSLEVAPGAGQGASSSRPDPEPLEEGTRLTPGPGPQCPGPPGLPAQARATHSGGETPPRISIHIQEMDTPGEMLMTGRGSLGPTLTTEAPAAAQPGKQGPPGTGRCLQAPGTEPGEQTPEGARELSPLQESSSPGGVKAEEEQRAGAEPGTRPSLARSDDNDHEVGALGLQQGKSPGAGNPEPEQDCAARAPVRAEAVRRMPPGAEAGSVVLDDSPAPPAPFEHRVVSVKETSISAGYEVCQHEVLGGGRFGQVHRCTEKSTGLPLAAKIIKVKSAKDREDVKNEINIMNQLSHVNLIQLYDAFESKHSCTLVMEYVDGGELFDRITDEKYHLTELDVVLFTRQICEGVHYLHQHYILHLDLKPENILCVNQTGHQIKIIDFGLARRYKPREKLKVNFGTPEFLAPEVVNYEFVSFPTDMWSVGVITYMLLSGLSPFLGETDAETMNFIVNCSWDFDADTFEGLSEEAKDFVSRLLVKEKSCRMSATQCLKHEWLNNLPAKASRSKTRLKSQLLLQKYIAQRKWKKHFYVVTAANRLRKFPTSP

[25] = target: Serine/threonine-protein kinase 38 (Homo sapiens) (UniProt Q15208); conditions: Compound concentration 1000.0 nM
[26] = target: Cyclin-dependent kinase 18 (Homo sapiens) (UniProt Q07002); conditions: Compound concentration 1000.0 nM
[27] = target: Calcium-dependent protein kinase 1 (Plasmodium falciparum) (UniProt P62344); conditions: Compound concentration 1000.0 nM
[28] = target: Cyclin-dependent kinase 15 (Homo sapiens) (UniProt Q96Q40); conditions: Compound concentration 1000.0 nM
[29] = target: Serine/threonine-protein kinase pim-2 (Homo sapiens) (UniProt Q9P1W9); conditions: Compound concentration 1000.0 nM
[30] = target: cGMP-dependent protein kinase 2 (Homo sapiens) (UniProt Q13237); conditions: Compound concentration 1000.0 nM
[31] = target: Serine/threonine-protein kinase PRP4 homolog (Homo sapiens) (UniProt Q13523); conditions: Compound concentration 1000.0 nM
[32] = target: Serine/threonine-protein kinase RIO2 (Homo sapiens) (UniProt Q9BVS4); conditions: Compound concentration 1000.0 nM
[33] = target: Receptor-interacting serine/threonine-protein kinase 1 (Homo sapiens) (UniProt Q13546); conditions: Compound concentration 1000.0 nM
[34] = target: Ribosomal protein S6 kinase alpha-4 (Homo sapiens) (UniProt O75676); conditions: Compound concentration 1000.0 nM
[35] = target: Ribosomal protein S6 kinase alpha-2 (Homo sapiens) (UniProt Q15349); conditions: Compound concentration 1000.0 nM
Sequence of Ribosomal protein S6 kinase alpha-2 (Homo sapiens) (Q15349 whole entry): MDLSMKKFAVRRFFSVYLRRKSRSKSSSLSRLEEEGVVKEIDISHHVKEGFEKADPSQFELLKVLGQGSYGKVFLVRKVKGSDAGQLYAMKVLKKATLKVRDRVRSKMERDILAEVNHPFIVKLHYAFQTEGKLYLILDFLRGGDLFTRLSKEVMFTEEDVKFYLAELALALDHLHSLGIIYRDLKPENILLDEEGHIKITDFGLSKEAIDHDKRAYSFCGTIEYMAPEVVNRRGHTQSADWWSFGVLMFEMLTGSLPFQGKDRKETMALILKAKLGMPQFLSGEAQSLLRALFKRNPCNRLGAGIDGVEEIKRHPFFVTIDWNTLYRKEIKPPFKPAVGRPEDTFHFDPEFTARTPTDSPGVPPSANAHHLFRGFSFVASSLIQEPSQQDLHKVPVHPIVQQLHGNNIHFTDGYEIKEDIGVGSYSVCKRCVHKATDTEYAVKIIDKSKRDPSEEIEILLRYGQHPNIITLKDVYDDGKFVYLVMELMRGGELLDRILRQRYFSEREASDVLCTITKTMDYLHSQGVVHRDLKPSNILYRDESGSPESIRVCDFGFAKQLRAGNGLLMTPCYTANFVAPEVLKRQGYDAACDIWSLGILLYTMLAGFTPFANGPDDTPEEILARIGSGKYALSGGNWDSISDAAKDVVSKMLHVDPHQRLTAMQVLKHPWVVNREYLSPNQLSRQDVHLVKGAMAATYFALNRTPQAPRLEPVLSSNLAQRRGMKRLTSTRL

[36] = target: Ribosomal protein S6 kinase alpha-2 (Homo sapiens) (UniProt Q15349); conditions: Compound concentration 1000.0 nM; remark: listed apart in the source
[37] = target: Serine/threonine-protein kinase SIK2 (Homo sapiens) (UniProt Q9H0K1); conditions: Compound concentration 1000.0 nM
[38] = target: Mitogen-activated protein kinase kinase kinase 7 (Homo sapiens) (UniProt O43318); conditions: Compound concentration 1000.0 nM
[39] = target: Serine/threonine-protein kinase TBK1 (Homo sapiens) (UniProt Q9UHD2); conditions: Compound concentration 1000.0 nM
[40] = target: Tyrosine-protein kinase Tec (Homo sapiens) (UniProt P42680); conditions: Compound concentration 1000.0 nM
Sequence of Tyrosine-protein kinase Tec (Homo sapiens) (P42680 whole entry): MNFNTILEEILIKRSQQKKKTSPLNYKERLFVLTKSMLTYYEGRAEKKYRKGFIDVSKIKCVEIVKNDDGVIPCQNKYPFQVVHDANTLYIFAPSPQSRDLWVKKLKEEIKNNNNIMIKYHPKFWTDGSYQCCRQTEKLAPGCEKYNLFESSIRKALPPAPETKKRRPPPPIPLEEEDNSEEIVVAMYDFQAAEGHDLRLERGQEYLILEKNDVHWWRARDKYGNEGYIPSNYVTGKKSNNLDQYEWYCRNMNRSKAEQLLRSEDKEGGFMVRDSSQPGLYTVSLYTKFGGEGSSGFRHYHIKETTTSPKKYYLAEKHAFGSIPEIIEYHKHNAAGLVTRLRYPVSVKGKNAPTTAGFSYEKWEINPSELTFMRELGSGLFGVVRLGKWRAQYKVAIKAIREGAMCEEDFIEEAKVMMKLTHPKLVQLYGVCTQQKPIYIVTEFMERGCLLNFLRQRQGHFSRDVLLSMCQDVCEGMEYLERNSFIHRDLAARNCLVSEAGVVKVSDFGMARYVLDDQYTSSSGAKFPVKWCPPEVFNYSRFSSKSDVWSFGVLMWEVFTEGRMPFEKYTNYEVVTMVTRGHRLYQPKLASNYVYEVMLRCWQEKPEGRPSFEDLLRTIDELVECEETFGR

[41] = target: TGF-beta receptor type-1 (Homo sapiens) (UniProt P36897); conditions: Compound concentration 1000.0 nM
Sequence of TGF-beta receptor type-1 (Homo sapiens) (P36897 whole entry): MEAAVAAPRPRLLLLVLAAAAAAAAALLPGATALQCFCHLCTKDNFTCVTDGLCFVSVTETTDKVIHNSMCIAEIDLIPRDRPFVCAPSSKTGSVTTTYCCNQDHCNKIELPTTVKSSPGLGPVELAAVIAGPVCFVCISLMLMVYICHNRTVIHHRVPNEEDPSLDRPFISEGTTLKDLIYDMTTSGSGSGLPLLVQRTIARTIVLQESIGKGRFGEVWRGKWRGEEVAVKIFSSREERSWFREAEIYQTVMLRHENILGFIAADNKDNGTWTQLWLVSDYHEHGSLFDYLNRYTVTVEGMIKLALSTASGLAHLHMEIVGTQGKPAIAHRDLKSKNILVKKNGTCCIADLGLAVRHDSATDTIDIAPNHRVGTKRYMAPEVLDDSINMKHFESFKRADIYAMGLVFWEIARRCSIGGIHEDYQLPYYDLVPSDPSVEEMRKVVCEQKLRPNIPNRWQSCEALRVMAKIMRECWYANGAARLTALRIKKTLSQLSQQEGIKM

[42] = target: BDNF/NT-3 growth factors receptor (Homo sapiens) (UniProt Q16620); conditions: Compound concentration 1000.0 nM
[43] = target: NT-3 growth factor receptor (Homo sapiens) (UniProt Q16288); conditions: Compound concentration 1000.0 nM
[44] = target: Serine/threonine-protein kinase ULK2 (Homo sapiens) (UniProt Q8IYT8); conditions: Compound concentration 1000.0 nM
[45] = target: Serine/threonine-protein kinase WNK2 (Homo sapiens) (UniProt Q9Y3S1); conditions: Compound concentration 1000.0 nM
[46] = target: Beta-1 adrenergic receptor (Homo sapiens) (UniProt P08588); conditions: Compound concentration 10.0 uM
Sequence of Beta-1 adrenergic receptor (Homo sapiens) (P08588 whole entry, looked up): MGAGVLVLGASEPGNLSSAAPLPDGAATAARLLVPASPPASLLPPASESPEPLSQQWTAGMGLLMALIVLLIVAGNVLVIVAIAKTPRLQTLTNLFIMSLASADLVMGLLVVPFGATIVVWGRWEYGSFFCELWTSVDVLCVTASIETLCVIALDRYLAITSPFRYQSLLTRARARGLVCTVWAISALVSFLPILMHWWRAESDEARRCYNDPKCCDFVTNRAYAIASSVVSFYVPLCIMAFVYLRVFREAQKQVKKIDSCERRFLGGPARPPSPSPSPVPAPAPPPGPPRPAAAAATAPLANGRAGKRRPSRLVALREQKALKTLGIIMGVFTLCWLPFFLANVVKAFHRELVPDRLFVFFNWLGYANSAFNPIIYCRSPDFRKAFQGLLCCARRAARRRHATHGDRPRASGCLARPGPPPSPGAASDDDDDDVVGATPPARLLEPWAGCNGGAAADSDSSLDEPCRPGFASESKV

CCC(=O)N[C@@H]1CC[C@H](C(=O)N(C)c2ccc(-c3nc4ccccc4o3)cc2)C1 [BI 99990]
residual activity [1]: 92% | residual activity [2]: 96% | residual activity [3]: 100% | residual activity [4]: 100% | residual activity [5]: 100% | residual activity [6]: 100% | residual activity [7]: 100% | residual activity [8]: 100% | residual activity [9]: 88% | residual activity [10]: 100% | residual activity [11]: 100% | residual activity [12]: 100% | residual activity [13]: 88% | residual activity [14]: 89% | residual activity [15]: 100% | residual activity [16]: 100% | residual activity [17]: 100% | residual activity [18]: 100% | residual activity [19]: 84% | residual activity [20]: 93% | residual activity [21]: 88% | residual activity [22]: 93% | residual activity [23]: 100% | residual activity [24]: 100% | residual activity [25]: 80% | residual activity [26]: 95% | residual activity [27]: 90% | residual activity [28]: 100% | residual activity [29]: 100% | residual activity [30]: 92% | residual activity [31]: 77% | residual activity [32]: 100% | residual activity [33]: 100% | residual activity [34]: 100% | residual activity [35]: 86% | residual activity [36]: 100% | residual activity [37]: 100% | residual activity [38]: 100% | residual activity [39]: 65% | residual activity [40]: 100% | residual activity [41]: 95% | residual activity [42]: 100% | residual activity [43]: 100% | residual activity [44]: 100% | residual activity [45]: 92% | inhibition [46]: -4.55%

CCC(=O)N[C@H]1CC[C@@H](C(=O)N(C)c2ccc(-c3nc4ccccc4o3)cc2)C1 [BI 99179]
residual activity [1]: 88% | residual activity [2]: 72% | residual activity [3]: 66% | residual activity [4]: 100% | residual activity [5]: 98% | residual activity [6]: 87% | residual activity [7]: 100% | residual activity [8]: 100% | residual activity [9]: 94% | residual activity [10]: 56% | residual activity [11]: 82% | residual activity [12]: 95% | residual activity [13]: 100% | residual activity [14]: 98% | residual activity [15]: 100% | residual activity [16]: 97% | residual activity [17]: 78% | residual activity [18]: 100% | residual activity [19]: 85% | residual activity [20]: 91% | residual activity [21]: 77% | residual activity [22]: 100% | residual activity [23]: 95% | residual activity [24]: 97% | residual activity [25]: 77% | residual activity [26]: 100% | residual activity [27]: 83% | residual activity [28]: 89% | residual activity [29]: 100% | residual activity [30]: 100% | residual activity [31]: 99% | residual activity [32]: 84% | residual activity [33]: 100% | residual activity [34]: 79% | residual activity [35]: 99% | residual activity [36]: 100% | residual activity [37]: 78% | residual activity [38]: 86% | residual activity [39]: 78% | residual activity [40]: 100% | residual activity [41]: 100% | residual activity [42]: 100% | residual activity [43]: 32% | residual activity [44]: 75% | residual activity [45]: 74% | inhibition [46]: -4.07%
